pEC50: −log10 of the molar value.
Test system: not given
Test: not given
Conditions: intravenous (IV) formulation; cited from earlier work

Row | Compound | first-phase pharmacokinetic half-life [min]
1 | Serelaxin: "an intravenous (IV) formulation of the recombinant human relaxin peptide with a relatively short first-phase pharmacokinetic half-life of 0.09 hours" | 5.4

Biological target: T1, human RXFP1 (Homo sapiens, UniProt Q9HBX9)
T1 construct: expressed in transfected cells
T1 sequence (Q9HBX9 1-757): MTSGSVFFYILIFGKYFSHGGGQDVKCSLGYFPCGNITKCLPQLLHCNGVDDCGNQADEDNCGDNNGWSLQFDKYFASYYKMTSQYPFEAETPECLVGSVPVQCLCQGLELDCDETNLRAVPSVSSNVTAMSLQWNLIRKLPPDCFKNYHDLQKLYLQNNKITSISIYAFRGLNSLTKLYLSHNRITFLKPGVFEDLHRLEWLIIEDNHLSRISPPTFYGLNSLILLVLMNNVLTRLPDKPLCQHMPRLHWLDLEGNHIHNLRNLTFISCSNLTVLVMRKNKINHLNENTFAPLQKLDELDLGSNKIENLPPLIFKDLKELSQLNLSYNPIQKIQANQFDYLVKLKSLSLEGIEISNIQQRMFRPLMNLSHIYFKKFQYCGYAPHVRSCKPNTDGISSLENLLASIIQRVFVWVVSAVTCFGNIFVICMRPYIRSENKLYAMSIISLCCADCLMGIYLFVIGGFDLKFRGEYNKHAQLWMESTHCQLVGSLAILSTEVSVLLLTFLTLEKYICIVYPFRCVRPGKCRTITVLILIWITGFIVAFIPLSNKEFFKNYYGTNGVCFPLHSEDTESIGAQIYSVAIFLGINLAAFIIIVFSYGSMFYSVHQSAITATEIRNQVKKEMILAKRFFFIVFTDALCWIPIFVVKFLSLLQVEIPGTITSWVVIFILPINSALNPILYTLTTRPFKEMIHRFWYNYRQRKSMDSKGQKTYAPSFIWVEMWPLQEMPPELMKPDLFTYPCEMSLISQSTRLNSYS
Test: hRXFP1 HEK293 cAMP assay (HTRF)
Type: cell-based
Conditions: HEK293 cells stably expressing human RXFP1; 30 min at rt; intracellular cAMP by HTRF
In short: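 HEK293 cells stably expressing human RXFP1 treated 30 min at rt with compound (0.010 nM to 50 μM, 2% DMSO) in HBSS/HEPES buffer with 0.5 mM IBMX. Intracellular cAMP measured by HTRF (665/590 nm ratio) against a cAMP standard curve; potency fitted by 4-parameter logistic.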

Row | Compound | pEC50
2 | COc1ccc(N2CCC(NCCS(C)(=O)=O)C2)cc1C(=O)Nc1c(C(=O)Nc2ccc(F)c(C(F)(F)F)c2)sc2cc(C(F)(F)F)ccc12 (stereo not shown) [Example 68, N-(4-fluoro-3-(trifluoromethyl)phenyl)-3-(2-methoxy-5-(3-((2-(methylsulfonyl)ethyl)amino)pyrrolidin-1-yl)benzamido)-6-(trifluoromethyl) benzo[b] thiophene-2-carboxamide] | 5.97
3 | COc1ncc(N2CCCC(CO)C2)cc1C(=O)Nc1c(C(=O)Nc2ccc(F)c(C(F)(F)F)c2)sc2cc(C(F)(F)F)ccc12 (stereo not shown) [Example 11, N-(2-((4-fluoro-3-(trifluoromethyl)phenyl)carbamoyl)-6-(trifluoromethyl)benzo[b]thiophen-3-yl)-5-(3-(hydroxymethyl)piperidin-1-yl)-2-methoxynicotinamide] | 5.60
4 | COc1ccc(C#CCO)cc1C(=O)Nc1c(C(=O)Nc2ccc(F)c(C(F)(F)F)c2)sc2cc(C(F)(F)F)ccc12 [Example 42, N-(4-fluoro-3-(trifluoromethyl)phenyl)-3-(5-(3-hydroxyprop-1-yn-1-yl)-2-methoxybenzamido)-6-(trifluoromethyl)benzo[b]thiophene-2-carboxamide] | 6.33
5 | COc1ccc(C2=NOC3(CCN(C(=O)CO)CC3)C2)cc1C(=O)Nc1c(C(=O)Nc2ccc(F)c(C(F)(F)F)c2)sc2cc(C(F)(F)F)ccc12 [Example 271, N-(4-fluoro-3-(trifluoromethyl)phenyl)-3-(5-(8-(2-hydroxyacetyl)-1-oxa-2,8-diazaspiro[4.5]dec-2-en-3-yl)-2-methoxy-benzamido)-6-(trifluoromethyl) benzo[b] thiophene-2-carboxamide] | 6.42
6 | COc1ccc(C(=O)N2CC3(COC3)C2)cc1C(=O)Nc1c(C(=O)Nc2ccc(F)c(C(F)(F)F)c2)sc2cc(C(F)(F)F)ccc12 [Example 181, N-(4-fluoro-3-(trifluoromethyl)phenyl)-3-(2-methoxy-5-(2-oxa-6-azaspiro[3.3]heptane-6-carbonyl)benzamido)-6-(trifluoromethyl) benzo[b] thiophene-2-carboxamide] | 6.26
7 | COc1ccc(C2CCCC(C)(O)C2)cc1C(=O)Nc1c(C(=O)Nc2ccc(F)c(C(F)(F)F)c2)sc2cc(C(F)(F)F)ccc12 (single isomer, unassigned) [Example 36, N-(4-fluoro-3-(trifluoromethyl)phenyl)-3-(5-(3-hydroxy-3-methylcyclohexyl)-2-methoxybenzamido)-6-(trifluoromethyl)benzo[b]thiophene-2-carboxamide] | 6.61
8 | COc1ccc(N2CCCC(C(C)(C)O)C2)cc1C(=O)Nc1c(C(=O)Nc2ccc(F)c(C(F)(F)F)c2)sc2cc(C(F)(F)F)ccc12 (single isomer, unassigned) [Example 107, N-(4-fluoro-3-(trifluoromethyl)phenyl)-3-(5-(3-(2-hydroxypropan-2-yl)piperidin-1-yl)-2-methoxy-benzamido)-6-(trifluoromethyl) benzo[b] thiophene-2-carboxamide] | 6.04
9 | COc1ccc(C2CC2C(=O)N2CC(C(C)(C)O)C2)cc1C(=O)Nc1c(C(=O)Nc2ccc(F)c(C(F)(F)F)c2)sc2cc(C(F)(F)F)ccc12 (stereo not shown) [Example 165, N-[4-fluoro-3-(trifluoromethyl)phenyl]-3-(5-{2-[3-(2-hydroxypropan-2-yl)azetidine-1-carbonyl]cyclopropyl}-2-methoxy-benzamido)-6-(trifluoromethyl)-1-benzothiophene-2-carboxamide] | 5.52
10 | COc1cc(F)c(C(=O)N2CCC(O)CC2)cc1C(=O)Nc1c(C(=O)Nc2ccc(F)c(C(F)(F)F)c2)sc2cc(C(F)(F)F)ccc12 [Example 184, N-(4-fluoro-3-(trifluoromethyl)phenyl)-3-(4-fluoro-5-(4-hydroxypiperidine-1-carbonyl)-2-methoxy-benzamido)-6-(trifluoromethyl) benzo[b] thiophene-2-carboxamide] | 6.46
11 | COc1ccc(C(=O)N2CCO[C@@H](CO)C2)cc1C(=O)Nc1c(C(=O)Nc2ccc(F)c(C(F)(F)F)c2)sc2cc(C(F)(F)F)ccc12 [Example 129, (R)-N-(4-fluoro-3-(trifluoromethyl)phenyl)-3-(5-(2-(hydroxymethyl)morpholine-4-carbonyl)-2-methoxy-benzamido)-6-(trifluoromethyl) benzo[b] thiophene-2-carboxamide] | 6.35

Further lines, results first:

Row | pEC50 | Compound
12 | 7.65 | COc1ccc(CNC(c2ccc(F)c(-c3ccc(OC)c(C(=O)Nc4c(C(=O)Nc5ccc(F)c(C(F)(F)F)c5)sc5cc(C(F)(F)F)ccc45)c3)c2)C(F)(F)F)cc1OC (single isomer, unassigned) [Example 114, 3-(5′-(1-((3,4-dimethoxybenzyl)amino)-2,2,2-trifluoroethyl)-2′-fluoro-4-methoxy-[1,1′-biphenyl]-3-carboxamido)-N-(4-fluoro-3-(trifluoromethyl)phenyl)-6-(trifluoromethyl) benzo[b] thiophene-2-carboxamide]
13 | 6.72 | COc1ccc(C2=NOC(C)(CO)C2)cc1C(=O)Nc1c(C(=O)Nc2ccc(F)c(C(F)(F)F)c2)sc2cc(C(F)(F)F)ccc12 (single isomer, unassigned) [Example 253, N-(4-fluoro-3-(trifluoromethyl)phenyl)-3-(5-(5-(hydroxymethyl)-5-methyl-4,5-dihydroisoxazol-3-yl)-2-methoxy-benzamido)-6-(trifluoromethyl) benzo[b] thiophene-2-carboxamide]
14 | 6.95 | COc1ccc(-c2cccc(CNS(C)(=O)=O)c2)cc1C(=O)Nc1c(C(=O)Nc2ccc(F)c(C(F)(F)F)c2)sc2cc(C(F)(F)F)ccc12 [Example 121, N-(4-fluoro-3-(trifluoromethyl)phenyl)-3-(4-methoxy-3′-(methylsulfon-amidomethyl)-[1,1′-biphenyl]-3-carboxamido)-6-(trifluoromethyl) benzo[b] thiophene-2-carboxamide]
15 | 6.69 | COc1ccc(-c2cc(C(C)(C)O)on2)cc1C(=O)Nc1c(C(=O)Nc2ccc(F)c(C(F)(F)F)c2)sc2cc(C(F)(F)F)ccc12 [Example 276, N-(4-fluoro-3-(trifluoromethyl)phenyl)-3-(5-(5-(2-hydroxypropan-2-yl)isoxazol-3-yl)-2-methoxy-benzamido)-6-(trifluoromethyl) benzo[b] thiophene-2-carboxamide]
16 | 6.73 | COc1ccc(C2CCCN(C(=O)C3CCC3)C2)cc1C(=O)Nc1c(C(=O)Nc2ccc(F)c(C(F)(F)F)c2)sc2cc(C(F)(F)F)ccc12 (stereo not shown) [Example 98, 3-(5-(1-(cyclobutane-carbonyl)piperidin-3-yl)-2-methoxy-benzamido)-N-(4-fluoro-3-(trifluoromethyl)phenyl)-6-(trifluoromethyl) benzo[b] thiophene-2-carboxamide]
